By IC50 is commonly meant the concentration that gives 50% inhibition.

In one experiment the target is VEGFR2, unphosphorylated (Homo sapiens (Human), UniProt P35968). As to the kind of experiment: VEGFR ADP GLO Assay. In kind it is biochemical. In general terms: In ADP-Glo the light output rises with the ADP produced.
Experiment [1] has as its target His6-TEV-PDGFRβ (557-1016) (Homo sapiens (Human), UniProt P09619). Briefly: PDGFRβ HTRF Assay. It counts as biochemical. The conditions noted are these: read-out: PDGFR HTRF IC50. The essentials: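 HTRF KinEASE-TK readout (665/620 nm ratio) of TK-biotin substrate phosphorylation by His-tagged PDGFRβ kinase domain. Enzyme and inhibitor preincubated 30 min, then ATP/substrate added for 3 h at room temperature before 60 min EDTA quench/detection.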
Background: In TR-FRET formats the signal depends on donor and acceptor labels being close together.

Each structure is given as a SMILES string.

Sequence of His6-TEV-PDGFRβ (557-1016) (P09619 557-1016): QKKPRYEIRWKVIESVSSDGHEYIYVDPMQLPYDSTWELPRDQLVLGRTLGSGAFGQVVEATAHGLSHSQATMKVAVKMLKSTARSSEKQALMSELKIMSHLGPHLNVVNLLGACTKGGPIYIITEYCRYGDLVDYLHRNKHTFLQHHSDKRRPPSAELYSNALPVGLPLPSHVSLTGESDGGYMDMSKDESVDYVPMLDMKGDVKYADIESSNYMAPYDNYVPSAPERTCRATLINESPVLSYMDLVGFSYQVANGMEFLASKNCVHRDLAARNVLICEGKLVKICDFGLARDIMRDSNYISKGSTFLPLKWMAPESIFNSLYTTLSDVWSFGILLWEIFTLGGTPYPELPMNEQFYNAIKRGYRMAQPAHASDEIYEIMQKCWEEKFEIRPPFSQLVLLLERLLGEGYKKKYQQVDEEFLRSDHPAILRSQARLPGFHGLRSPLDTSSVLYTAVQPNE
Sequence of VEGFR2, unphosphorylated (P35968 20-1356): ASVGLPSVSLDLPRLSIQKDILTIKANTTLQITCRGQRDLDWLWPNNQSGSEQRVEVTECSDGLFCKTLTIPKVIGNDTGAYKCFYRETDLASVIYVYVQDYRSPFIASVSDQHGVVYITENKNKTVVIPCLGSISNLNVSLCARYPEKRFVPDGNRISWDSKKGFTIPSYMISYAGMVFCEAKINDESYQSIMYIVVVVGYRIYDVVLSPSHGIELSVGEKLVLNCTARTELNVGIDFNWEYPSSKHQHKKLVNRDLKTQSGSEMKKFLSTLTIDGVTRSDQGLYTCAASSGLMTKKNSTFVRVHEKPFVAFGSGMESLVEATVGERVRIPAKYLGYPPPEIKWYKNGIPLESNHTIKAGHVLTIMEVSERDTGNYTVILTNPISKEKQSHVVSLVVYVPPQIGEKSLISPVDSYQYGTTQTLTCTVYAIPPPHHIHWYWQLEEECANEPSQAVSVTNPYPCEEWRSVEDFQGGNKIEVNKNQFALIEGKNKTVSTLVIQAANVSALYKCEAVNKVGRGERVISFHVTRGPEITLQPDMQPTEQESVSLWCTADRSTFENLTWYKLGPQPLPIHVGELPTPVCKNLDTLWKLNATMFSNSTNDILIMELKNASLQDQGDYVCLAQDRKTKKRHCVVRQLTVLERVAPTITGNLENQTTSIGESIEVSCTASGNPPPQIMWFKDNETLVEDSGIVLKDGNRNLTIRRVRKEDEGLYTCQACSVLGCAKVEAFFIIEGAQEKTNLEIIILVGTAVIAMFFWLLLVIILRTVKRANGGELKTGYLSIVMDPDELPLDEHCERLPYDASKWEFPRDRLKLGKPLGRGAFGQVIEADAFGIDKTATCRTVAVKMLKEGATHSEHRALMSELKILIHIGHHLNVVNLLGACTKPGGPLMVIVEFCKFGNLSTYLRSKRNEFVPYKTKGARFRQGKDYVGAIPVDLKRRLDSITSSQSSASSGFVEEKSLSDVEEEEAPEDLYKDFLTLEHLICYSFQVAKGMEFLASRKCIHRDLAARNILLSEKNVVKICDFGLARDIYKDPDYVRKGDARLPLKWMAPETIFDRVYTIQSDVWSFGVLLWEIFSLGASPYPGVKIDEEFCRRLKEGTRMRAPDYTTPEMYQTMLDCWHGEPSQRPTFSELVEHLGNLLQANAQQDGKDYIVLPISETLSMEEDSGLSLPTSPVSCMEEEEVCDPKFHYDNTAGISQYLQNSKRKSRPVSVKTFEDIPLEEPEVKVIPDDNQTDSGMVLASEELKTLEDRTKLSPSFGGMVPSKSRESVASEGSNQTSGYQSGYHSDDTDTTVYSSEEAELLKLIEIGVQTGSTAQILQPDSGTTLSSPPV

`Cc1ncc(C(=O)NCCN2C3CCCC2CCC3)cc1NC(=O)c1cnn2cc(-c3cnn(C)c3)sc12` [Example 4, N-(5-((2-(9-azabicyclo[3.3.1]nonan-9-yl)ethyl)carbamoyl)-2-methylpyridin-3-yl)-2-(1-methyl-1H-pyrazol-4-yl)pyrazolo[5,1-b]thiazole-7-carboxamide]: the 50% inhibitory concentration (IC50) against VEGFR2, unphosphorylated was greater than 7500 nM; in experiment [1], 0.3 nM.
With `Cc1ncc(C(=O)NCCN2CC3CC(C3)C2)cc1NC(=O)c1cnn2cc(-c3cnn(C)c3)sc12` [Example 5, N-(5-((2-(3-azabicyclo[3.1.1]heptan-3-yl)ethyl)carbamoyl)-2-methylpyridin-3-yl)-2-(1-methyl-1H-pyrazol-4-yl)pyrazolo[5,1-b]thiazole-7-carboxamide], the half-inhibitory concentration (IC50) was greater than 7500 nM at VEGFR2, unphosphorylated and 0.4 nM in experiment [1].
With `Cc1ncc(C(=O)NCCN2CCCC2(C)C)cc1NC(=O)c1cnn2cc(-c3cnn(C4CC4)c3)sc12` [Example 6, 2-(1-cyclopropyl-1H-pyrazol-4-yl)-N-(5-((2-(2,2-dimethylpyrrolidin-1-yl)ethyl)carbamoyl)-2-methylpyridin-3-yl)pyrazolo[5,1-b]thiazole-7-carboxamide], the IC50 against VEGFR2, unphosphorylated was greater than 7500 nM; in experiment [1], 0.2 nM.
As for `Cc1ncc(C(=O)NCCN2CCCC2(C)C)cc1NC(=O)c1cnn2cc(-c3ccncc3)sc12` [Example 7, N-(5-((2-(2,2-dimethylpyrrolidin-1-yl)ethyl)carbamoyl)-2-methyl-pyridin-3-yl)-2-(pyridin-4-yl)pyrazolo[5,1-b]thiazole-7-carboxamide], the 50% inhibitory concentration (IC50) against VEGFR2, unphosphorylated is greater than 7500 nM; in experiment [1] it was 0.5 nM.
For `Cc1ncc(C(=O)NCCN2CCCC2(C)C)cc1NC(=O)c1cnn2cc(-c3cnn(C)c3)sc12` [Example 8, N-(5-((2-(2,2-dimethylpyrrolidin-1-yl)ethyl)carbamoyl)-2-methylpyridin-3-yl)-2-(1-methyl-1H-pyrazol-4-yl)pyrazolo[5,1-b]thiazole-7-carboxamide], in that order: greater than 10000 nM and 0.4 nM.
For `Cc1ncc(C(=O)NCCN2CCCC2(C)C)cc1NC(=O)c1cnn2cc(-c3ccn(C)n3)sc12` [Example 9, N-(5-((2-(2,2-dimethylpyrrolidin-1-yl)ethyl)carbamoyl)-2-methylpyridin-3-yl)-2-(1-methyl-1H-pyrazol-3-yl)pyrazolo[5,1-b]thiazole-7-carboxamide] the same measures were greater than 7500 nM and 0.3 nM.
Turning to `Cc1ncc(NC(=O)CCN2CCCC2(C)C)cc1NC(=O)c1cnn2cc(-c3cnn(C)c3)sc12` [Example 10, N-(5-(3-(2,2-dimethylpyrrolidin-1-yl)propanamido)-2-methyl-pyridin-3-yl)-2-(1-methyl-1H-pyrazol-4-yl)pyrazolo[5,1-b]thiazole-7-carboxamide], the concentration for half-maximal inhibition (IC50) against VEGFR2, unphosphorylated was greater than 7500 nM; in experiment [1], 0.3 nM.
For the molecule `Cc1ncc(NC(=O)CCN2CCCC2(C)C)cc1NC(=O)c1cnn2cc(-c3ccnn3C)sc12` [Example 11, N-(5-(3-(2,2-dimethylpyrrolidin-1-yl)propanamido)-2-methyl-pyridin-3-yl)-2-(1-methyl-1H-pyrazol-5-yl)pyrazolo[5,1-b]thiazole-7-carboxamide], the IC50 against VEGFR2, unphosphorylated is greater than 7500 nM; in experiment [1] it was 0.5 nM.
With `COCCn1cc(-c2cn3ncc(C(=O)Nc4cc(NC(=O)CCN5CCC56CCC6)cnc4C)c3s2)cn1` [Example 95, N-(5-(3-(1-azaspiro[3.3]heptan-1-yl)propanamido)-2-methylpyridin-3-yl)-2-(1-(2-methoxyethyl)-1H-pyrazol-4-yl)pyrazolo[5,1-b]thiazole-7-carboxamide], the concentration for half-maximal inhibition (IC50) is greater than 7500 nM on VEGFR2, unphosphorylated and 0.4 nM in experiment [1].
In the case of `Cc1ncc(NC(=O)CCN2CC(C)(C)C2)cc1NC(=O)c1cnn2cc(-c3cnn(C)c3)sc12` [Example 96, N-(5-(3-(3,3-dimethylazetidin-1-yl)propanamido)-2-methylpyridin-3-yl)-2-(1-methyl-1H-pyrazol-4-yl)pyrazolo[5,1-b]thiazole-7-carboxamide], the IC50 against VEGFR2, unphosphorylated was greater than 7500 nM; in experiment [1], 0.6 nM.
For `Cc1ncc(NC(=O)CCN2CCC3(CC2)CC3)cc1NC(=O)c1cnn2cc(-c3cnn(C)c3)sc12` [Example 97, N-(5-(3-(6-azaspiro[2.5]octan-6-yl)propanamido)-2-methylpyridin-3-yl)-2-(1-methyl-1H-pyrazol-4-yl)pyrazolo[5,1-b]thiazole-7-carboxamide], in that order: greater than 7500 nM and 0.4 nM.
For `Cc1ncc(NC(=O)CCN2CCCC23CC3)cc1NC(=O)c1cnn2cc(-c3cnn(C)c3)sc12` [Example 98], the IC50 on VEGFR2, unphosphorylated is greater than 7500 nM; in experiment [1], 0.3 nM.
For `COCCn1cc(-c2cn3ncc(C(=O)Nc4cc(NC(=O)CCN5CC6CCC5CC6)cnc4C)c3s2)cn1` [Example 100, N-(5-(3-(2-azabicyclo[2.2.2]octan-2-yl)propanamido)-2-methylpyridin-3-yl)-2-(1-(2-methoxyethyl)-1H-pyrazol-4-yl)pyrazolo[5,1-b]thiazole-7-carboxamide], in that order: greater than 7500 nM and 0.5 nM.
For `COCCn1nc(C)c(-c2cn3ncc(C(=O)Nc4cc(NC(=O)CCN5CC6CCC(C5)O6)cnc4C)c3s2)c1C` [Example 102, N-(5-(3-(8-oxa-3-azabicyclo[3.2.1]octan-3-yl)propanamido)-2-methylpyridin-3-yl)-2-(1-(2-methoxyethyl)-3,5-dimethyl-1H-pyrazol-4-yl)pyrazolo[5,1-b]thiazole-7-carboxamide], in that order: greater than 7500 nM and 1.3 nM.
On to `COCCn1nc(C)c(-c2cn3ncc(C(=O)Nc4cc(NC(=O)CCN5CCC6(CC6)C5)cnc4C)c3s2)c1C` [Example 103, N-(5-(3-(5-azaspiro[2.4]heptan-5-yl)propanamido)-2-methylpyridin-3-yl)-2-(1-(2-methoxyethyl)-3,5-dimethyl-1H-pyrazol-4-yl)pyrazolo[5,1-b]thiazole-7-carboxamide], for which the half-inhibitory concentration (IC50) was greater than 7500 nM against VEGFR2, unphosphorylated and 0.8 nM in experiment [1].
Turning to `Cc1ncc(NC(=O)CCN2CCC3(CC3)C2)cc1NC(=O)c1cnn2cc(-c3cnn(C)c3)sc12` [Example 104, N-(5-(3-(5-azaspiro[2.4]heptan-5-yl)propanamido)-2-methylpyridin-3-yl)-2-(1-methyl-1H-pyrazol-4-yl)pyrazolo[5,1-b]thiazole-7-carboxamide], the IC50 against VEGFR2, unphosphorylated was greater than 7500 nM; in experiment [1], 0.4 nM.
As for `Cc1ncc(NC(=O)CCCN2CCC[C@@H]2C)cc1NC(=O)c1cnn2cc(-c3cnn(C)c3)sc12` [Example 106, (S)-2-(1-methyl-1H-pyrazol-4-yl)-N-(2-methyl-5-(4-(2-methylpyrrolidin-1-yl)butanamido)pyridin-3-yl)pyrazolo[5,1-b]thiazole-7-carboxamide], the IC50 is greater than 7500 nM at VEGFR2, unphosphorylated and 1.3 nM in experiment [1].
For the molecule `Cc1ncc(NC(=O)NCC2CCN(C)CC2)cc1NC(=O)c1cnn2cc(-c3cnn(C)c3)sc12` [Example 107, 2-(1-methyl-1H-pyrazol-4-yl)-N-(2-methyl-5-(3-((1-methylpiperidin-4-yl)methyl)ureido)pyridin-3-yl)pyrazolo[5,1-b]thiazole-7-carboxamide], the IC50 is greater than 7500 nM against VEGFR2, unphosphorylated and 13.2 nM in experiment [1].

The values above are taken from patent US20240109917A1 (ACTELION PHARMACEUTICALS LTD, priority 2020, published 2024).
